In article PMC5971037, “Synthesis and evaluation of antimicrobial, antitubercular and anticancer activities of 2-(1-benzoyl-1H-benzo[d]imidazol-2-ylthio)-N-substituted acetamides” (Chemistry Central Journal, 2018):
Values after ≈ are worked out from the molar mass of the structure shown. Where two headings read alike, the source gives them in different places.

Legend:
S. typhi [1] = assay: Tube dilution MIC; assay type: cell-based; conditions: Salmonella enterica, 24 h, read-out: MIC S. typhi
B. cereus [2] = assay: MBC by subculturing; assay type: cell-based
Method: (§1) The minimum bactericidal concentration (MBC) and minimum fungicidal concentration (MFC) of the synthesized benzimidazole derivatives was determined by subculturing 100 µl of culture from each tube that remained clear in MIC determination onto sterilized petri-plates containing fresh agar medium. The petri-plates were incubated and analyzed for microbial growth visually.

B. subtilis [3] = assay: MBC by subculturing; assay type: cell-based
Method: as §1

E. coli [4] = assay: MBC by subculturing; assay type: cell-based; conditions: Escherichia coli
Method: as §1

S. aureus [5] = assay: MBC by subculturing; assay type: cell-based; conditions: Staphylococcus aureus
Method: as §1

S. typhi [6] = assay: MBC by subculturing; assay type: cell-based; conditions: Salmonella enterica, read-out: MBC S. typhi
Method: as §1

A. niger [7] = assay: MFC by subculturing; assay type: cell-based
Method: as §1

C. albicans [8] = assay: MFC by subculturing; assay type: cell-based
Method: as §1

[9] = system: M. tuberculosis H37Rv (NCFT/TB/537); assay: Well diffusion susceptibility test (zone of inhibition); assay type: cell-based; conditions: Mycobacterium tuberculosis, 672 h, read-out: Diameter of zone of inhibition against H37Rv (NCFT/TB/537), wells of 8 mm, 50 µg/ml test compound, 25 µg/ml standard drug, 4 weeks, NA = no activity
M. tuberculosis H37Rv [10] = assay: MIC by microplate alamar blue assay; assay type: cell-based; conditions: Mycobacterium tuberculosis, NA = no activity, read-out: MIC against M. tuberculosis H37Rv
M. tuberculosis H37Rv [11] = assay: Minimum lethal concentration (MLC); assay type: cell-based; conditions: Mycobacterium tuberculosis, NA = no activity, read-out: MLC against M. tuberculosis H37Rv
[12] = In vivo LD50, ED50 and toxic dose in mice models; conditions: mouse, dose that killed 50% of the mice population within the group
Method: The LD50 and ED50 were determined for the active compounds in mice models infected with Mycobacterium H37Rv (Table 4). […] Thus, ED50 of 1.34 mg/kg was considered safe for each of the compounds. It was observed that this dose was effective and safe for mice in different groups before infecting the mice models with specific TB bacteria as no mortality of any single animal was recorded.
The LD50 (lethal dose) and ED50 (optimum/effective dose) doses were determined for the active compounds in mice models infected with Mycobacterium H37Rv via ethical permission no., NCFT/EC/16/2313 assigned to Collaborative Research Group (CRG), NCFT, New Delhi, India.

[13] = biological target: mycobacterial isocitrate lyase (Mycobacterium tuberculosis, UniProt P9WKK7); assay: Mycobacterial isocitrate lyase (ICL) assay; assay type: biochemical, M. tuberculosis H37Rv; conditions: read-out: Percent inhibition of enzyme, M. ICL activity
Sequence of mycobacterial isocitrate lyase (P9WKK7 whole entry): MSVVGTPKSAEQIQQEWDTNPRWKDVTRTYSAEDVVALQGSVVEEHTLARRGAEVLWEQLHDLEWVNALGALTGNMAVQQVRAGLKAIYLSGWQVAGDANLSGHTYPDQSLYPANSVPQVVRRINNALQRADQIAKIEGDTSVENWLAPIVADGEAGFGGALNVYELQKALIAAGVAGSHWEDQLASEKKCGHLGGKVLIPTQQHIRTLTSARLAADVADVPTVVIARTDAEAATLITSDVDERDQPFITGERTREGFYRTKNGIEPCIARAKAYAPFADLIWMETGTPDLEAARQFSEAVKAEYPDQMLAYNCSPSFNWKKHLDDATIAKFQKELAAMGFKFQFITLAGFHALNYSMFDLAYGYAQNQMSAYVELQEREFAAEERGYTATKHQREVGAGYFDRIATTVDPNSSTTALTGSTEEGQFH
Method: The compounds found potent in in vivo evaluation were assayed for inhibition of mycobacterial enzymes viz., isocitrate lyase, pantothenate synthetase and chorismate mutase.
Isocitrate lyase activity was assayed according to the protocol reported by Dixon and Kornberg (glyoxylate phenyl hydrazone formation) at 10 μM of the compounds.

S. aureus [14] = assay: Tube dilution MIC; conditions: Staphylococcus aureus, 24 h, read-out: MIC S. aureus
B. cereus [15] = assay: Tube dilution MIC; conditions: Bacillus cereus, 24 h, read-out: MIC B. cereus
B. subtilis [16] = assay: Tube dilution MIC; conditions: Bacillus subtilis, 24 h, read-out: MIC B. subtilis
E. coli [17] = assay: Tube dilution MIC; conditions: Escherichia coli, 24 h, read-out: MIC E. coli
C. albicans [18] = assay: microbe, parasite or virus in culture; conditions: Candida albicans, 48 h, read-out: MIC C. albicans
A. niger [19] = assay: microbe, parasite or virus in culture; conditions: Aspergillus niger, 168 h, read-out: MIC A. niger
[20] = system: MCF7 (human breast cancer) cell line; assay: Sulforhodamine-B (SRB) cytotoxicity assay; assay type: cell-based; conditions: SRB assay, MCF7 cell line, read-out: IC50 MCF7
[21] = system: HCT116 (human colorectal) cell line; assay: Sulforhodamine-B (SRB) cytotoxicity assay; assay type: cell-based; conditions: HCT-116, SRB assay, HCT116 cell line, read-out: IC50 HCT116
[22] = Bacillus cereus; read-out: MBC B. cereus
[23] = Bacillus subtilis; read-out: MBC B. subtilis
[24] = Aspergillus niger; read-out: MFC A. niger
[25] = Candida albicans; read-out: MFC C. albicans

Structure (SMILES)	MIC (S. typhi [1])	MBC (E. coli [4])	MBC (S. aureus [5])	MBC (S. typhi [6])	zone of inhibition at 50 µg/mL [9]	MIC (M. tuberculosis H37Rv [10])	MBC (M. tuberculosis H37Rv [11])	MIC (S. aureus [14])	MIC (B. cereus [15])	MIC (B. subtilis [16])	MIC (E. coli [17])	MIC (C. albicans [18])	MIC (A. niger [19])	MBC (B. cereus [2]; [22])	MBC (B. subtilis [3]; [23])	MFC (A. niger [7]; [24])	MFC (C. albicans [8]; [25])	IC50 [21]	other results
COc1ccc(NC(=O)CSc2nc3ccccc3n2C(=O)c2ccccc2)cc1 [Compound 18, 2-(1-Benzoyl-1H-benzo[d]imidazol-2-ylthio)-N-(4-methoxyphenyl)acetamide]	30 µM (≈ 12.5 µg/mL)	50 µg/mL (≈ 120 µM)	> 50 µg/mL	> 50 µg/mL	> 20 mm	12.5 µg/mL (≈ 29.9 µM)	25 µg/mL (≈ 59.9 µM)	30 µM (≈ 12.5 µg/mL)	30 µM (≈ 12.5 µg/mL)	30 µM (≈ 12.5 µg/mL)	30 µM (≈ 12.5 µg/mL)	15 µM (≈ 6.26 µg/mL)	30 µM (≈ 12.5 µg/mL)	–	–	–	–	–	MBC (B. cereus [2]; Bacillus cereus, read-out: MBC B. cereus): > 50 µg/mL; MBC (B. subtilis [3]; Bacillus subtilis, read-out: MBC B. subtilis): > 50 µg/mL; MFC (A. niger [7]; Aspergillus niger, read-out: MFC A. niger): > 50 µg/mL; MFC (C. albicans [8]; Candida albicans, read-out: MFC C. albicans): 50 µg/mL (≈ 120 µM); LD50 [12]: 3.15 mg/kg; inhibition at 10 µM [13]: 64.6%
COc1cccc(NC(=O)CSc2nc3ccccc3n2C(=O)c2ccccc2)c1 [Compound 14, 2-(1-Benzoyl-1H-benzo[d]imidazol-2-ylthio)-N-(3-methoxyphenyl)acetamide]	30 µM (≈ 12.5 µg/mL)	50 µg/mL (≈ 120 µM)	> 50 µg/mL	> 50 µg/mL	–	–	–	30 µM (≈ 12.5 µg/mL)	30 µM (≈ 12.5 µg/mL)	30 µM (≈ 12.5 µg/mL)	30 µM (≈ 12.5 µg/mL)	30 µM (≈ 12.5 µg/mL)	30 µM (≈ 12.5 µg/mL)	> 50 µg/mL	> 50 µg/mL	> 50 µg/mL	50 µg/mL (≈ 120 µM)	95.8 µM	IC50 [20]: 95.8 µM
[H]/N=C(/N)N[C@H]1[C@H](O)[C@@H](O)[C@H](O[C@@H]2O[C@@H](C)[C@](O)(C=O)[C@H]2O[C@@H]2O[C@@H](CO)[C@H](O)[C@@H](O)[C@@H]2NC)[C@@H](N/C(N)=N\[H])[C@@H]1O [Streptomycin, reference compound]	–	–	–	–	> 20 mm	12.5 µg/mL (≈ 21.5 µM)	25 µg/mL (≈ 43 µM)	–	–	–	–	–	–	–	–	–	–	–	–
Cc1cccc(NC(=O)CSc2nc3ccccc3n2C(=O)c2ccccc2)c1 [Compound 19, 2-(1-Benzoyl-1H-benzo[d]imidazol-2-ylthio)-N-m-tolylacetamide]	31 µM (≈ 12.4 µg/mL)	> 50 µg/mL	50 µg/mL (≈ 125 µM)	> 50 µg/mL	–	–	–	31 µM (≈ 12.4 µg/mL)	31 µM (≈ 12.4 µg/mL)	31 µM (≈ 12.4 µg/mL)	31 µM (≈ 12.4 µg/mL)	16 µM (≈ 6.42 µg/mL)	31 µM (≈ 12.4 µg/mL)	> 50 µg/mL	50 µg/mL (≈ 125 µM)	> 50 µg/mL	50 µg/mL (≈ 125 µM)	–	–
CC1=C(C(=O)O)N2C(=O)[C@@H](NC(=O)[C@H](N)c3ccc(O)cc3)[C@H]2SC1 [Cefadroxil, reference compound]	370 µM (≈ 134 µg/mL)	–	–	–	–	–	–	370 µM (≈ 134 µg/mL)	370 µM (≈ 134 µg/mL)	370 µM (≈ 134 µg/mL)	370 µM (≈ 134 µg/mL)	–	–	–	–	–	–	–	–
O=C(CSc1nc2ccccc2n1C(=O)c1ccccc1)Nc1cccc(Cl)c1 [Compound 5, 2-(1-Benzoyl-1H-benzo[d]imidazol-2-ylthio)-N-(3-chlorophenyl)acetamide]	30 µM (≈ 12.7 µg/mL)	50 µg/mL (≈ 119 µM)	50 µg/mL (≈ 119 µM)	50 µg/mL (≈ 119 µM)	8 mm	17.8 µg/mL (≈ 42.2 µM)	28.1 µg/mL (≈ 66.6 µM)	30 µM (≈ 12.7 µg/mL)	30 µM (≈ 12.7 µg/mL)	30 µM (≈ 12.7 µg/mL)	30 µM (≈ 12.7 µg/mL)	15 µM (≈ 6.33 µg/mL)	30 µM (≈ 12.7 µg/mL)	> 50 µg/mL	50 µg/mL (≈ 119 µM)	> 50 µg/mL	50 µg/mL (≈ 119 µM)	131 µM	IC50 [20]: 83.1 µM
Cc1ccccc1NC(=O)CSc1nc2ccccc2n1C(=O)c1ccccc1 [Compound 16, 2-(1-Benzoyl-1H-benzo[d]imidazol-2-ylthio)-N–o-tolylacetamide]	31 µM (≈ 12.4 µg/mL)	> 50 µg/mL	50 µg/mL (≈ 125 µM)	50 µg/mL (≈ 125 µM)	10 mm	15 µg/mL (≈ 37.4 µM)	28 µg/mL (≈ 69.7 µM)	31 µM (≈ 12.4 µg/mL)	31 µM (≈ 12.4 µg/mL)	31 µM (≈ 12.4 µg/mL)	31 µM (≈ 12.4 µg/mL)	16 µM (≈ 6.42 µg/mL)	31 µM (≈ 12.4 µg/mL)	> 50 µg/mL	50 µg/mL (≈ 125 µM)	> 50 µg/mL	25 µg/mL (≈ 62.3 µM)	87.2 µM	IC50 [20]: 124 µM
[H]/N=C(/N)N[C@H]1[C@H](O)[C@@H](O)[C@H](O[C@@H]2O[C@@H](C)[C@](O)(C=O)[C@H]2O[C@@H]2O[C@@H](CO)[C@H](O)[C@@H](O)[C@@H]2NC)[C@@H](N/C(N)=N\[H])[C@@H]1O [Streptomycin sulphate, streptomycin sulphate, reference compound]	–	–	–	–	–	–	–	–	–	–	–	–	–	–	–	–	–	–	inhibition at 10 µM [13]: 75.1%
O=c1[nH]cc(F)c(=O)[nH]1 [Compound 5-FU, 5-fluorouracil, reference compound]	–	–	–	–	–	–	–	–	–	–	–	–	–	–	–	–	–	12.5 µM	–
Cc1ccc(NC(=O)CSc2nc3ccccc3n2C(=O)c2ccccc2)c(C)c1 [Compound 20, 2-(1-Benzoyl-1H-benzo[d]imidazol-2-ylthio)-N-(2,4-dimethylphenyl)acetamide]	30 µM (≈ 12.5 µg/mL)	> 50 µg/mL	50 µg/mL (≈ 120 µM)	50 µg/mL (≈ 120 µM)	10 mm	15 µg/mL (≈ 36.1 µM)	28 µg/mL (≈ 67.4 µM)	30 µM (≈ 12.5 µg/mL)	30 µM (≈ 12.5 µg/mL)	30 µM (≈ 12.5 µg/mL)	30 µM (≈ 12.5 µg/mL)	15 µM (≈ 6.23 µg/mL)	30 µM (≈ 12.5 µg/mL)	> 50 µg/mL	50 µg/mL (≈ 120 µM)	> 50 µg/mL	25 µg/mL (≈ 60.2 µM)	–	–
OC(Cn1cncn1)(Cn1cncn1)c1ccc(F)cc1F [Fluconazole, reference compound]	–	–	–	–	–	–	–	–	–	–	–	470 µM (≈ 144 µg/mL)	470 µM (≈ 144 µg/mL)	–	–	–	–	–	–
